Literature values as cited in patent publication US6518456B1, “Process for the production of 1-(aminomethyl)-cyclohexyl-acetic acid in pure form” (Procos S.p.A., priority 2001, dated 2003).

Conditions: extremely low toxicity; species and route not given

For `NCC1(CC(=O)O)CCCCC1` [Gabapentin, 1-(aminomethyl)cyclohexyl-acetic acid], the LD50 is given as > 8000 mg/kg.
